Patent US9718833B2, “Tritoqualine hydrochloride in crystalline form and a process for obtaining same” (priority 2013, dated 2017)
Values after ≈ are worked out from the molar mass of the structure shown.

What was measured:
[1] = in water at room temperature; background statement; cited from earlier work
[2] = biological target: T1, L-histidine decarboxylase (Homo sapiens, UniProt P19113); conditions: background statement; cited from earlier work
T1 sequence (P19113 1-662): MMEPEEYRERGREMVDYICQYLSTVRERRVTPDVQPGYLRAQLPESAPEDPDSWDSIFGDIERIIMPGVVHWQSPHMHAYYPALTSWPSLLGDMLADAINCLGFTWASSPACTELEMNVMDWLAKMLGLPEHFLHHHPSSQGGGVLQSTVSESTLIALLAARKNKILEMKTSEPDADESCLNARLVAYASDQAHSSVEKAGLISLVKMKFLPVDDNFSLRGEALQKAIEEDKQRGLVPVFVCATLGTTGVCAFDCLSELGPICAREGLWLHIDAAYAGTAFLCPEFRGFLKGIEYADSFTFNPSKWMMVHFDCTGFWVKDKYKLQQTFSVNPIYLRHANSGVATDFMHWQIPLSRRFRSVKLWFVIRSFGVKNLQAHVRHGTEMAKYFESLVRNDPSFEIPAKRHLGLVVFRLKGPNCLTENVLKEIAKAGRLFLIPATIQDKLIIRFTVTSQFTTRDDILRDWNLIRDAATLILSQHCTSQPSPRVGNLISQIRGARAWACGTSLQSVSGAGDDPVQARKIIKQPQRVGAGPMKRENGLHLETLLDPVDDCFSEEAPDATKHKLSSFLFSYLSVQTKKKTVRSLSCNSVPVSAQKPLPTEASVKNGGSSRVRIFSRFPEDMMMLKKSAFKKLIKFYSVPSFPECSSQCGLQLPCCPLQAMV

[3] = physchem; conditions: organic solvent or mixture
[4] = Solubility in organic solvents (ethers, alcohols, glycols, ketones); assay type: physicochemical
[5] = hydrochloride formed in situ by addition of hydrochloric acid to tritoqualine in solution; background statement; cited from earlier work
[6] = Solubility in water
[7] = Solubility in ethanol; conditions: at 20° C.

| melting point [°C] | solubility ([3]; 20 °C) [mg/mL] | solubility [3] [mg/mL] | Solubility in alcohols and glycols compared with tritoqualine base ([4]; alcohols and glycols) | Solubility in ethers ([4]; ethers) | Solubility in primary alcohols, acetone and methyl ethyl ketone ([4]; primary alcohols, acetone, methyl ethyl ketone) | Behaviour in aqueous solution at pH>3.0 [6] | Solubility in ethanol [7] [g/l at] | Molecule | Solubility in water [1] [ppm] | Activity as enzymatic inhibitor of L-histidine decarboxylase [2] | Half lifetime in an aqueous solution [5] |
| --- | --- | --- | --- | --- | --- | --- | --- | --- | --- | --- | --- |
| 184 | 2.5 (≈ 4.99 mM) | 50 (≈ 99.9 mM) |  |  |  |  |  | CCOc1c(N)c2c(c(OCC)c1OCC)C(C1c3c(cc4c(c3OC)OCO4)CCN1C)OC2=O (centres unmarked) [Base, 7-amino-4,5,6-triethoxy-3-(4-methoxy-6-methyl-7,8-dihydro-5H-[1,3]dioxolo[4,5-g]isoquinoline-5-yl)-3H-isobenzofuran-1-one] | 100 | very low |  |
|  |  |  | much more soluble than tritoqualine base | very little soluble or even insoluble | soluble | precipitates | >300 | tritoqualine hydrochloride |  |  | a few hours |
